Experimental findings from patent publication US20240254140A1, “COMPOUNDS AND THEIR USE IN THE TREATMENT OF BACTERIAL INFECTION” (Hoffmann-La Roche Inc., priority 2021, published 2024) are described below.

Structures are written as SMILES. ≈ marks a conversion by molar mass, not a printed value.

In general, MIC refers to the lowest concentration that inhibits growth of the organism. A low value points to inhibition by little substance.

The subject of the first assay is Escherichia coli ATCC 25922. As to the kind of experiment: Minimal Inhibitory Concentration (MIC) determination, broth microdilution. The class given is cell-based. Particulars: ATCC25922; strain Escherichia coli ATCC 25922; broth microdilution per CLSI M07-A10; 18-24 hours at 35±2° C.; lowest concentration for complete growth inhibition. On the procedure:
Minimal Inhibitory Concentration (MIC) Determination:
The MIC of antibacterial compounds against multiple species and strains was determined using the broth microdilution method according to M07-A10 Clinical and Laboratory Standards Institute (CLSI) guidelines, using the appropriate broth medium. In short, the compound plates were prepared by dispensing 100 μL of each stock solution in the first well of a 96 well microtiter plate (MTP) at a concentration 100-fold higher than the final concentration desired in broth. Eleven serial 2-fold dilutions of the highest concentration were made in DMSO for new compounds and in water (or appropriate solution) for reference compounds [2]. 1 μL of each well was transferred in a new MTP, which served as the test plate by subsequent inoculation. This bacterial suspension was prepared from strains that were first sub-cultured on agar plates and incubated for 18-24 hours as appropriate. Following incubation, the inoculum was prepared from isolated colonies and adjusted to 0.5 McFarland turbidity standard (1 to 2×10^8 Colony Forming Units (CFU)/mL) in 0.9% saline. The bacterial suspension was then diluted 1:200 in appropriate sterile medium and within 15 minutes 100 μL/well were dispensed. Negative controls (lack of bacterial cells) and growth control wells (lack of compound) were included in all plates. MTPs were incubated for 18-24 hours at 35±2° C. in ambient air. The MIC value of each compound, expressed as μg/mL, was determined as the lowest concentration required for complete growth inhibition (no visible growth). • [1] CLSI (2015) Methods for dilution antimicrobial susceptibility tests for bacteria that grow aerobically; Approved Standard, Tenth Edition. CLSI Document M7-A10 (ISBN 1-56238-987-4). Wayne, PA: Clinical and Laboratory Standards Institute, 19087, USA. • [2] CLSI (2017) Performance Standards for Antimicrobial Susceptibility Testing; Twenty-Fifth Informational Supplement. CLSI Document M100-S27, CLSI, Wayne, Pennsylvania 19087, USA.
Table 1 provides the Minimal Inhibitory Concentrations (MIC) in micrograms per millilitre of the compounds of present invention obtained against the strain Escherichia coli ATCC 25922.
(In general: In broth dilution the organism is exposed to a series of concentrations in liquid medium.)
As to `CC(C)(O)C(=O)Nc1cc(F)c2c(c1)CC(CNCCC1CN(c3cnc4c(n3)NC(=O)CO4)C(=O)O1)C2` (stereo not shown) [Example 18, N-[7-fluoro-2-[[2-[2-oxo-3-(3-oxo-4H-pyrazino[2,3-b][1,4]oxazin-6-yl)oxazolidin-5-yl]ethylamino]methyl]indan-5-yl]-2-hydroxy-2-methyl-propanamide], the MIC came out at 0.25 µg/mL (≈ 0.473 µM).

For the compound `C[C@H](C(=O)Nc1cc(F)c2c(c1)CC(CNCC[C@@H]1CN(c3cnc4c(n3)NC(=O)CO4)C(=O)O1)C2)N(C)C` (stereo partly drawn) [Example 70, (2R)-2-(Dimethylamino)-N-[7-fluoro-2-[[2-[(5R)-2-oxo-3-(3-oxo-4H-pyrazino[2,3-b][1,4]oxazin-6-yl)oxazolidin-5-yl]ethylamino]methyl]indan-5-yl]propanamide], the MIC came to 0.125 µg/mL (≈ 0.231 µM).

`Cc1cc(NC(=O)CN(C)C)nc2c1CC(CNCCC1CN(c3cnc4c(n3)NC(=O)CO4)C(=O)O1)C2` (stereo not shown) [Example 24] yielded a minimal inhibitory concentration (MIC) of 0.5 µg/mL (≈ 0.953 µM). This MIC lies about 4-fold higher than the previous one.

Turning to `COC1(CNCC2CN(c3cnc4c(n3)NC(=O)CO4)C(=O)O2)Cc2c(F)cc(NC(=O)[C@@H](C)N(C)C)c(F)c2C1` (stereo partly shown) [Example 31], the MIC is 4 µg/mL (≈ 6.95 µM). This MIC lies about 8-fold higher than the previous one. Still for that read-out and setting: under `C[C@H](C(=O)Nc1cc(F)c2c(c1)CC(F)(CNCCC1CN(c3cnc4c(n3)NC(=O)CO4)C(=O)O1)C2)N(C)C` (stereo partly drawn) [Example 33, (2R)-N-[2,7-difluoro-2-[[2-[2-oxo-3-(3-oxo-4H-pyrazino[2,3-b][1,4]oxazin-6-yl)oxazolidin-5-yl]ethylamino]methyl]indan-5-yl]-2-(dimethylamino)propanamide] stands 0.5 µg/mL (≈ 0.894 µM); under `CN(CC(=O)Nc1cc(F)c2c(c1)CC(CNCCC1CN(c3cnc4c(n3)NC(=O)CO4)C(=O)O1)C2)C1CC1` (stereo not shown) [Example 13], 1 µg/mL (≈ 1.81 µM). In turn, `C[C@H](C(=O)Nc1cc(F)c2c(c1)C(O)C(CN1CCC3(CC1)CN(c1cnc4c(n1)NC(=O)CO4)C(=O)O3)C2)N(C)C` (stereo partly drawn) [Example 65, (2R)-2-(Dimethylamino)-N-[7-fluoro-3-hydroxy-2-[[2-oxo-3-(3-oxo-4H-pyrazino[2,3-b][1,4]oxazin-6-yl)-1-oxa-3,8-diazaspiro[4.5]decan-8-yl]methyl]indan-5-yl]propanamide] came in with a minimum inhibitory concentration (MIC) of 0.5 µg/mL (≈ 0.857 µM). On to `C[C@H](C(=O)Nc1cc(F)c2c(c1)CC(CNCC[C@H]1CN(c3cnc4c(n3)NC(=O)CO4)C(=O)O1)C2)N(C)C` (single isomer, unassigned) [Example 68], for which the MIC was found to be 0.125 µg/mL (≈ 0.231 µM). On to `CN(CCC1CN(c2cnc3c(n2)NC(=O)CO3)C(=O)O1)CC1Cc2cc(NC(=O)[C@@H]3C[C@@H](O)CN3)cc(F)c2C1` (stereo partly drawn) [Example 63, (2S,4R)—N-[7-Fluoro-2-[[methyl-[2-[2-oxo-3-(3-oxo-4H-pyrazino[2,3-b][1,4]oxazin-6-yl)oxazolidin-5-yl]ethyl]amino]methyl]indan-5-yl]-4-hydroxy-pyrrolidine-2-carboxamide], for which the minimum inhibitory concentration (MIC) was determined as 0.25 µg/mL (≈ 0.439 µM).

`O=C1COc2ncc(N3CC(CCNCC4Cc5cc(NC(=O)[C@@H]6C[C@@H](O)CN6)cc(F)c5C4)OC3=O)nc2N1` (stereo partly drawn) [Example 37, (2S,4R)-N-[7-fluoro-2-[[2-[2-oxo-3-(3-oxo-4H-pyrazino[2,3-b][1,4]oxazin-6-yl)oxazolidin-5-yl]ethylamino]methyl]indan-5-yl]-4-hydroxy-pyrrolidine-2-carboxamide] gave a minimal inhibitory concentration (MIC) of 0.5 µg/mL (≈ 0.9 µM). With `C[C@H](C(=O)Nc1ccc2c(c1F)CC(CNCCC1CN(c3cnc4c(n3)NC(=O)CO4)C(=O)O1)C2)N(C)C` (stereo partly shown) [Example 23], the MIC stood at 0.5 µg/mL (≈ 0.923 µM). For the compound `CN1CCC[C@@H]1C(=O)Nc1cc(F)c2c(c1)CC(CNCCC1CN(c3cnc4c(n3)NC(=O)CO4)C(=O)O1)C2` (stereo partly drawn) [Example 14, (2R)-N-[7-fluoro-2-[[2-[2-oxo-3-(3-oxo-4H-pyrazino[2,3-b][1,4]oxazin-6-yl)oxazolidin-5-yl]ethylamino]methyl]indan-5-yl]-1-methyl-pyrrolidine-2-carboxamide], the minimal inhibitory concentration (MIC) worked out at 0.125 µg/mL (≈ 0.226 µM). As for `Cc1cc(NC(=O)[C@@H]2CCCN2C)nc2c1CC(CNCCC1CN(c3cnc4c(n3)NC(=O)CO4)C(=O)O1)C2` (stereo partly drawn) [Example 27, (2S)-1-methyl-N-[4-methyl-6-[[2-[2-oxo-3-(3-oxo-4H-pyrazino[2,3-b][1,4]oxazin-6-yl)oxazolidin-5-yl]ethylamino]methyl]-6,7-dihydro-5H-cyclopenta[b]pyridin-2-yl]pyrrolidine-2-carboxamide], the minimum inhibitory concentration (MIC) is 1 µg/mL (≈ 1.82 µM). For `CN1C[C@H](O)C[C@H]1C(=O)Nc1cc(F)c2c(c1)CC(CN1CCC3(CC1)CN(c1cnc4c(n1)NC(=O)CO4)C(=O)O3)C2` (stereo partly drawn) [Example 64, (2S,4R)—N-[7-Fluoro-2-[[2-oxo-3-(3-oxo-4H-pyrazino[2,3-b][1,4]oxazin-6-yl)-1-oxa-3,8-diazaspiro[4.5]decan-8-yl]methyl]indan-5-yl]-4-hydroxy-1-methyl-pyrrolidine-2-carboxamide], the MIC stood at 0.25 µg/mL (≈ 0.42 µM). `CN(C)C(C)(C)C(=O)Nc1cc(F)c2c(c1)CC(CNCCC1CN(c3cnc4c(n3)NC(=O)CO4)C(=O)O1)C2` (stereo not shown) [Example 3] registered a minimal inhibitory concentration (MIC) of 0.25 µg/mL (≈ 0.45 µM).

`CC(C)(O)C(=O)Nc1cc(C#N)c2c(c1)CC(CNCCC1CN(c3cnc4c(n3)NC(=O)CO4)C(=O)O1)C2` (stereo not shown) [Example 20] displayed a minimum inhibitory concentration (MIC) of 0.5 µg/mL (≈ 0.934 µM). As to `CN1CCC[C@@H]1C(=O)Nc1cc(C#N)c2c(c1)CC(CNCCC1CN(c3cnc4c(n3)NC(=O)CO4)C(=O)O1)C2` (stereo partly drawn) [Example 62, (2R)—N-[7-Cyano-2-[[2-[2-oxo-3-(3-oxo-4H-pyrazino[2,3-b][1,4]oxazin-6-yl)oxazolidin-5-yl]ethylamino]methyl]indan-5-yl]-1-methyl-pyrrolidine-2-carboxamide], the MIC was ≤ 0.06 µg/mL. Turning to `C[C@H](C(=O)Nc1cc(F)c2c(c1)C(F)C(CNCC[C@@H]1CN(c3cnc4c(n3)NC(=O)CO4)C(=O)O1)C2)N(C)C` (stereo partly drawn) [Example 67, (2R)—N-[3,7-Difluoro-2-[[2-[(5R)-2-oxo-3-(3-oxo-4H-pyrazino[2,3-b][1,4]oxazin-6-yl)oxazolidin-5-yl]ethylamino]methyl]indan-5-yl]-2-(dimethylamino)propanamide], the MIC is 0.5 µg/mL (≈ 0.894 µM). `CN(C)C(C)(C)C(=O)Nc1cc(F)c2c(c1)CC(CN1CCC3(CC1)CN(c1cnc4c(n1)NC(=O)CO4)C(=O)O3)C2` (stereo not shown) [Example 6] had a minimum inhibitory concentration (MIC) of 0.25 µg/mL (≈ 0.43 µM). As to `Cc1cc(NC(=O)CN2CCC2)nc2c1CC(CNCCC1CN(c3cnc4c(n3)NC(=O)CO4)C(=O)O1)C2` (stereo not shown) [Example 26, 2-(azetidin-1-yl)-N-[4-methyl-6-[[2-[2-oxo-3-(3-oxo-4H-pyrazino[2,3-b][1,4]oxazin-6-yl)oxazolidin-5-yl]ethylamino]methyl]-6,7-dihydro-5H-cyclopenta[b]pyridin-2-yl]acetamide], the MIC turned out to be 0.5 µg/mL (≈ 0.932 µM). This MIC lies about 2-fold higher than the previous one. On to `CN1CCC[C@H]1C(=O)Nc1cc(F)c2c(c1)CC(CNCCC1CN(c3cnc4c(n3)NC(=O)CO4)C(=O)O1)C2` (stereo partly drawn) [Example 10, (2S)-N-[7-fluoro-2-[[2-[2-oxo-3-(3-oxo-4H-pyrazino[2,3-b][1,4]oxazin-6-yl)oxazolidin-5-yl]ethylamino]methyl]indan-5-yl]-1-methyl-pyrrolidine-2-carboxamide], for which the minimum inhibitory concentration (MIC) is 0.125 µg/mL (≈ 0.226 µM).

Regarding `CO[C@@H]1C[C@@H](C(=O)Nc2cc(F)c3c(c2)CC(CNCCC2CN(c4cnc5c(n4)NC(=O)CO5)C(=O)O2)C3)N(C)C1` (stereo partly drawn) [Example 17, (2S,4R)-N-[7-fluoro-2-[[2-[2-oxo-3-(3-oxo-4H-pyrazino[2,3-b][1,4]oxazin-6-yl)oxazolidin-5-yl]ethylamino]methyl]indan-5-yl]-4-methoxy-1-methyl-pyrrolidine-2-carboxamide], the MIC was 1 µg/mL (≈ 1.71 µM).

For `O=C1COc2ncc(N3CC4(CCN(CC5Cc6cc(NC(=O)[C@H]7C[C@H](O)CN7)cc(F)c6C5)CC4)OC3=O)nc2N1` (stereo partly drawn) [Example 56, (2R,4S)—N-[7-Fluoro-2-[[2-oxo-3-(3-oxo-4H-pyrazino[2,3-b][1,4]oxazin-6-yl)-1-oxa-3,8-diazaspiro[4.5]decan-8-yl]methyl]indan-5-yl]-4-hydroxy-pyrrolidine-2-carboxamide], the MIC was ≤ 0.06 µg/mL. `C[C@@H](C(=O)Nc1cc(F)c2c(c1)CC(CN1CCC3(CC1)CN(c1cnc4c(n1)NC(=O)CO4)C(=O)O3)C2)N(C)C` (stereo partly drawn) [Example 51, (2S)-2-(Dimethylamino)-N-[7-fluoro-2-[[2-oxo-3-(3-oxo-4H-pyrazino[2,3-b][1,4]oxazin-6-yl)-1-oxa-3,8-diazaspiro[4.5]decan-8-yl]methyl]indan-5-yl]propanamide] showed a minimal inhibitory concentration (MIC) of 0.125 µg/mL (≈ 0.22 µM).

Still in this assay, the particulars now being: strain Escherichia coli ATCC 25922; broth microdilution per CLSI M07-A10; 18-24 hours at 35±2° C.; lowest concentration for complete growth inhibition.
With `C[C@H](C(=O)Nc1cc(F)c2c(c1)CC(CNCC[C@@H]1CN(c3cnc4c(n3)NC(=O)CO4)C(=O)O1)C2)N(C)C` (stereo partly drawn) [Example 71, (2R)-2-(Dimethylamino)-N-[7-fluoro-2-[[2-[(5R)-2-oxo-3-(3-oxo-4H-pyrazino[2,3-b][1,4]oxazin-6-yl)oxazolidin-5-yl]ethylamino]methyl]indan-5-yl]propanamide], the “Escherichia coli growth inhibition MIC” value came out at 0.125 µg/mL.
